The test system of data set [1] is platelets. Put plainly: Hypotonic shock response (HSR) of platelets. Format: cell-based, human. The following applies: T = test unit (150 µM S-59, 3 Joules/cm^2 UVA, RD 8 hours on day 1). The procedure: (§1) For the evaluation of in vitro platelet function, platelet samples were withdrawn from both the control and test units before treatment and after treatment on days 2, 5, and 7. The following parameters were analyzed: pH, pO2, pCO2, bicarbonate concentration, platelet count, morphology, aggregation, platelet shape change, hypotonic shock response, lactate production, glucose consumption, ATP secretion, p-selectin expression, and microvesicle formation. Several of these assays, including pH, morphology score, platelet shape change, and hypotonic shock response, have been reported in the literature to correlate with in- vivo post-transfusion recovery and survival. The Student's paired t-test was used for statistical analysis.

Data set [2] concerns platelets. Put plainly: Microvesicle formation of platelets. The following applies: T = test unit (150 µM S-59, 3 Joules/cm^2 UVA, RD 8 hours on day 1). The format is cell-based, human. On the procedure: as §1
Data set [3] relates to platelet concentrate. Put plainly: Maintenance of pH of platelet concentrate. Format: cell-based, human. The following applies: T = test unit (150 µM S-59, 3 Joules/cm^2 UVA, RD 8 hours on day 1). On the procedure:
To measure the effects of the present compounds and methods of decontamination on platelet function using these four indicators, four samples were prepared for each compound tested, two control samples and two containing compound. […] These were each transferred under sterile conditions to 50 ml centrifuge tubes, then aliquots of each unit were transferred into a second set of 50 ml sterile centrifuge tubes. […] The samples were pipetted gently up and down to mix. […] Samples were treated in one of two different sized bags, having either 3 ml or 8 ml capacity. […] For each compound tested, two control samples without compound were prepared by again removing aliquots of platelet concentrate (17 ml if using an 8 ml bag, 4 ml if using a 3 ml bag) from the same one of the first set of 50 ml centrifuge tubes from which the compound sample was drawn, and dividing into Medibags, as before. […]

Data set [4] in a line: HPLC analysis of residual S-59 and photoproducts in PC after UVA and 8-hour treatment with RD containing Dowex XUS-43493. The format is physicochemical. The procedure: Briefly, the assay involved an initial sample preparation which lyses the platelets and solubilizes the S-59 and photoproducts. The supernatant from the sample preparation was then analyzed on a C-18 reverse phase column with a gradient of increasing methanol in KH2PO4 buffer. The major peaks were detected by optical absorbance. […] Samples of the treated PC were then taken and subjected to HPLC for detection of residual S-59 and S-59 photoproducts. Post-incubation levels of photoproducts D, E, and F (S-59) are presented in Table N; photoproducts A, B, C, and G were not detectable by HPLC. Levels of residual photoproducts are average values taken from six independent, photochemically- and RD-treated platelet units. […] The PC was assayed for unbound photoproducts using the HPLC assay discussed above, which quantifies the photoproducts present both within the platelets and in the plasma/PAS III mixture. […] In addition to assaying the complete PC, samples were centrifuged to remove the platelets so that unbound photoproducts in the plasma/PAS III could be analyzed separately. […] To evaluate the efficacy of the RD for reducing the concentration of S-59. platelet samples from the test unit were analyzed for S-59 content by HPLC. […] The concentration of S-59 before and after UVA illumination and the reduction in the concentration of residual S-59 following RD treatment were measured by HPLC analysis. […]

Data set [5] concerns platelet concentrate. Put plainly: pO2, pCO2 and bicarbonate concentration of platelet concentrate. Format: cell-based, human. The following applies: T = test unit (150 µM S-59, 3 Joules/cm^2 UVA, RD 8 hours on day 1). On the procedure:
In addition to the data summarized in Table E, measurements of pH, pO2, and pCO2 were taken over a five-day storage period. No significant differences between the treated and control units were observed. Finally, it should be noted that these experiments were performed with standard Amberlite™ resins (i.e., resins which were not treated by Supelco, Inc.).
as §1

Molecules are shown by their SMILES.

`Cc1oc2c(C)c3oc(=O)cc(C)c3cc2c1COCCN` [Compound 2, 4'-(4-amino-2-oxa)butyl-4,5',8-trimethylpsoralen]: the “(%) HSR” value in data set [1] (Day 2) is given as 52±5 %; in data set [1] (Day 5), 45±3%; in data set [1] (Day 7) it was 48±8%. Besides, the figures for the “(%) Microvesicle Formation” value in data set [2] (Day 2), in data set [2] (Day 5) and in data set [2] (Day 7) were 0.9±0.2%, 0.8±0.2% and 1.7±1.7%, respectively. Further, the pH in data set [3] (Day 2) was 6.94±0.05; in data set [3] (Day 5) it was 6.92±0.06; in data set [3] (Day 7), 6.91±0.05. Further, the “% Residual S- 59” value in data set [4] (Post 3 Joule/cm^2 UVA Illumination, of the initial S-59 remained unreacted) is 20.5 ± 2.3%. In addition, in data set [4] (Pre-Treatment (0 Joule/cm^2), platelet concentrate, HPLC), the “µM S-59” value is 145 ± 10 µM. The Bicarbonate in data set [5] (Day 2) was determined as 6.3 ± 0.3 mM; in data set [5] (Day 5), 4.8 ± 0.5 mM; in data set [5] (Day 7), 4.2 ± 0.7 mM. Further, the values for the pCO2 in data set [5] (Day 2), in data set [5] (Day 5) and in data set [5] (Day 7) were 29.2±3.8 mm Hg, 23.7±3.5 mm Hg and 20.7±2.4 mm Hg, respectively. Moreover, the results for the pO2 in data set [5] (Day 2), in data set [5] (Day 5) and in data set [5] (Day 7) were 68.3±19.4 mm Hg, 84.8±22.5 mm Hg and 88.8±20.2 mm Hg, respectively.
